Laboratory results published in the supplement of paper PMC7455731.

Assay: collision cross section (DTIM-MS, N2); higher = larger ion
Method: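 Collision cross section (CCS) of drug and natural-product chemical standards (validation set 2, measured in this paper). Three independent measurements were made across 2 months; the value taken is their mean (avg_ccs), for the ion adduct given.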

| SMILES | collision cross section (ion adduct: [M+H]+) [Å²] | collision cross section (ion adduct: [M-H]-) [Å²] |
| --- | --- | --- |
| C=CCc1cc(OC)c(OC)c(OC)c1 [Elemicin] | 144.76 |  |
| Cc1cc(O)c2c(c1)C(=O)c1cc(O)cc(O)c1C2=O [Emodin] | 156.69 | 155.06 |
| CCOc1cc(NC(C)=O)ccc1C(=O)OC [Ethopabate] | 151.13 | 158.16 |
| CCOC(=O)c1ccc(O)c(OC)c1 [Ethyl Vanillate] |  | 144.12 |
| CCOC(=O)c1cc2ccccc2oc1=O [Ethyl coumarin-3-carboxylate] | 141.92 |  |
| CCOc1cc(C=O)ccc1O [Ethyl vanillin] |  | 133.69 |
| COc1cc([C@@H]2c3cc4c(cc3[C@@H](O[C@@H]3O[C@@H]5CO[C@@H](C)O[C@H]5[C@H](O)[C@H]3O)C3COC(=O)C32)OCO4)cc(OC)c1O (stereo partly drawn) [Etoposide] | 250.54 |  |
| COc1ccc(C=CC(=O)c2c(O)cc(OC)cc2OC)cc1 [Flavokawain A] | 176.36 | 184.75 |
| O=C(O)c1ccccc1Nc1cccc(C(F)(F)F)c1 [Flufenamic acid] | 159.39 | 160.69 |
| Nc1[nH]c(=O)ncc1F [Fluorocytosine] | 119.97 |  |
| Nc1ccn([C@@H]2O[C@H](CO)[C@@H](O)C2(F)F)c(=O)n1 [Gemcitabine] | 155.86 |  |
| COC(=O)C1=CO[C@@H](O[C@@H]2O[C@H](CO)[C@@H](O)[C@H](O)[C@H]2O)[C@@H]2C(CO)=CC[C@H]12 [Geniposide] |  | 184.6 |
| O=C(O)C1=CO[C@@H](O[C@@H]2O[C@H](CO)[C@@H](O)[C@H](O)[C@H]2O)[C@@H]2C(CO)=CC[C@H]12 [Geniposidic acid] |  | 184.17 |
| O=c1c(-c2ccc(O)cc2)coc2cc(O[C@@H]3O[C@H](CO)[C@@H](O)[C@H](O)[C@H]3O)cc(O)c12 [Genistin] | 207.07 | 213.76 |
| COc1cc(O)c2c(=O)cc(-c3ccc(O)cc3)oc2c1 [Genkwanin] | 163.54 | 166.12 |
| CC(C)=C1C/C=C(\C)CC/C=C(\C)CC1=O [Germacrone] | 149.53 |  |
| C=C1C[C@]23C[C@@]1(O)CC[C@H]2[C@@]12C=C[C@H](O)[C@@](C)(C(=O)O1)[C@H]2[C@@H]3C(=O)O [Gibberellic acid] |  | 177.69 |
| CCCCCCCCCCCCCCCc1cccc(O)c1C(=O)O [Ginkgolic<U+00A0>Acid<U+00A0>C15:0<U+00A0>] |  | 190.92 |
| CC(C)=CCC[C@](C)(O[C@@H]1O[C@H](CO)[C@@H](O)[C@H](O)[C@H]1O)[C@H]1CC[C@]2(C)[C@@H]1[C@H](O)C[C@@H]1[C@@]3(C)CC[C@H](O)C(C)(C)[C@@H]3CC[C@]12C [Ginsenoside Compound K] |  | 257.91 |

| SMILES | collision cross section (ion adduct: [M+H]+) [Å²] | collision cross section (ion adduct: [M-H]-) [Å²] |
| --- | --- | --- |
| CC(C)=CCC[C@](C)(O[C@@H]1O[C@H](CO)[C@@H](O)[C@H](O)[C@H]1O)[C@H]1CC[C@]2(C)[C@@H]1[C@H](O)C[C@@H]1[C@@]3(C)CC[C@H](O)C(C)(C)[C@@H]3[C@@H](O)C[C@]12C [Ginsenoside F1] |  | 259.18 |
| CC(C)=CCC[C@](C)(O)[C@H]1CC[C@]2(C)[C@@H]1[C@H](O)C[C@@H]1[C@@]3(C)CC[C@H](O)C(C)(C)[C@@H]3[C@@H](O[C@@H]3O[C@H](CO)[C@@H](O)[C@H](O)[C@H]3O)C[C@]12C [Ginsenoside Rh1] |  | 266.62 |
| CC1(C)CC[C@]2(C(=O)O[C@@H]3O[C@H](CO)[C@@H](O)[C@H](O)[C@H]3O)CC[C@]3(C)C(=CC[C@@H]4[C@@]5(C)CC[C@H](O[C@@H]6O[C@H](C(=O)O)[C@@H](O)[C@H](O)[C@H]6O[C@@H]6O[C@H](CO)[C@@H](O)[C@H](O)[C@H]6O)C(C)(C)[C@@H]5CC[C@]43C)[C@@H]2C1 [Ginsenoside Ro] |  | 310.46 |
| CC1(C)C=Cc2c(ccc3c2OC[C@@H](c2ccc(O)cc2O)C3)O1 [Glabridin] | 180.63 | 184.46 |
| CC1(C)[C@@H](O[C@H]2O[C@H](C(=O)O)[C@@H](O)[C@H](O)[C@H]2OC2O[C@H](C(=O)O)[C@@H](O)[C@H](O)[C@H]2O)CC[C@]2(C)[C@H]3C(=O)C=C4[C@@H]5C[C@@](C)(C(=O)O)CC[C@]5(C)CC[C@@]4(C)[C@]3(C)CC[C@@H]12 (stereo partly drawn) [Glycyrrhizic acid] | 287.67 | 281.13 |
| O=C1CCc2ccccc2O1 [Hydrocoumarin] |  | 127.47 |
| COc1ccc2c(c1)c(CC(=O)O)c(C)n2C(=O)c1ccc(Cl)cc1 [Indometacin] | 181.26 |  |
| CC1=CC23C(=O)C(C=C(CO)C(O)C2(O)C1O)C1C(CC3C)C1(C)C (stereo not drawn) [Ingenol] |  | 184.41 |
| CC(C)NC(=O)N1CC(=O)N(c2cc(Cl)cc(Cl)c2)C1=O [Iprodione] | 180.27 |  |
| CC=Cc1ccc(O)c(OC)c1 [Isoeugenol] |  | 138.02 |
| COc1ccc(-c2cc(=O)c3c(O)cc(O)c(-c4cc(-c5cc(=O)c6c(O)cc(O)cc6o5)ccc4OC)c3o2)cc1 [Isoginkgetin] | 231.51 | 230.78 |
| COc1ccc(CC2c3cc(Oc4cc(CC5c6cc(O)c(OC)cc6CCN5C)ccc4O)c(OC)cc3CCN2C)cc1 (stereo not drawn) [Isoliensinine] | 238.39 | 232.33 |
| COc1cc(C2Oc3ccc(C4Oc5cc(O)cc(O)c5C(=O)C4O)cc3OC2CO)ccc1O (stereo not drawn) [Isosilybin] | 214.42 |  |
| C[C@@]12CCC3[C@@](CC[C@@H]4[C@](C)(C(=O)O)CCC[C@@]34C)(CC1=O)C2 (stereo partly drawn) [Isosteviol] | 180.22 | 180.18 |
| COC1=CC(=O)O[C@@H](/C=C/c2ccccc2)C1 [Kawain] | 150.52 |  |
| C=CC(C)(C)c1cc(/C=C/C(=O)c2ccc(O)cc2)c(OC)cc1O [Licochalcone A] | 191.26 | 194.56 |
| COc1c(C=CC(=O)c2ccc(O)cc2)ccc(O)c1O [Licochalcone B] | 170.36 | 171.14 |
| O=C1C[C@@H](c2ccc(O)cc2)Oc2cc(O)ccc21 [Liquiritigenin] | 162 | 161.75 |
| O=c1cc(-c2ccc(O)c(O)c2)oc2cc(O[C@@H]3O[C@H](CO)[C@@H](O)[C@H](O)[C@H]3O)cc(O)c12 [Luteolin-7-O-glucoside] | 209.01 | 210.14 |

| SMILES | collision cross section (ion adduct: [M+H]+) [Å²] | collision cross section (ion adduct: [M-H]-) [Å²] |
| --- | --- | --- |
| OC[C@@H](O)[C@@H](O[C@H]1O[C@H](CO)[C@@H](O)[C@H](O)[C@H]1O)[C@H](O)[C@@H](O)CO [Maltitol] |  | 169.57 |
| Cc1cccc(Nc2ccccc2C(=O)O)c1C [Mefenamic acid] | 154.75 |  |
| CNC[C@H](O)[C@@H](O)[C@H](O)[C@H](O)CO [Meglumine] | 141.05 | 139.8 |
| COC(=O)/C=C/c1ccc(O)cc1 [Methyl 4-hydroxycinnamate] |  | 139.5 |
| COC(=O)c1cc(OC)c(O)c(OC)c1 [Methyl syringate] |  | 146.35 |
| NC(=O)c1ncn([C@@H]2O[C@H](CO)[C@@H](O)[C@H]2O)c1O [Mizoribine] |  | 155.14 |
| C[C@@H]1O[C@@H](Oc2c(-c3cc(O)c(O)c(O)c3)oc3cc(O)cc(O)c3c2=O)[C@H](O)[C@H](O)[C@H]1O [Myricitrin] |  | 199.23 |
| COc1cc(C=CC(=O)NCCc2ccc(O)cc2)ccc1O [N-trans-Feruloyltyramine] | 181.28 | 176.36 |
| CC1CCC=C2C(=O)CC3OOC(C)(C)C3C21C (stereo not drawn) [Nardosinone] |  | 156.3 |
| COc1ccc(CC2c3cc(Oc4cc(CC5c6cc(OC)c(OC)cc6CCN5C)ccc4O)c(OC)cc3CCN2C)cc1 (stereo not drawn) [Neferine] | 242.9 | 252.96 |
| COc1ccc([C@@H]2CC(=O)c3c(O)cc(O[C@@H]4O[C@H](CO)[C@@H](O)[C@H](O)[C@H]4O[C@@H]4O[C@@H](C)[C@H](O)[C@@H](O)[C@H]4O)cc3O2)cc1O [Neohesperidin] |  | 229.5 |
| COc1ccc(CCC(=O)c2c(O)cc(O[C@@H]3O[C@H](CO)[C@@H](O)[C@H](O)[C@H]3O[C@@H]3O[C@@H](C)[C@H](O)[C@@H](O)[C@H]3O)cc2O)cc1O [Neosperidin dihydrochalcone] | 233.96 |  |
| NC(=O)c1cccnc1 [Nicotinamide] | 125.25 |  |
| CC(=O)OC5CC(=O)O[C@@](C)(C)[C@@H]6CC(=O)[C@]3(C)[C@H](CC[C@@]2(C)[C@@H](OC(=O)[C@H]1O[C@]123)c4ccoc4)[C@@]56C (stereo partly drawn) [Nomilin] | 217.15 | 219.9 |
| COc1cc2c3c(c1OC)-c1ccccc1C[C@H]3N(C)CC2 [Nuciferine] | 172.41 |  |
| COc1c(O)c(C)cc2c1C(=O)c1c(O)cccc1C2=O [Obtusifolin] | 158.75 | 160.85 |
| C/C=C1/[C@H](O[C@@H]2O[C@H](CO)[C@@H](O)[C@H](O)[C@H]2O)OC=C(C(=O)OC)[C@H]1CC(=O)OCCc1ccc(O)c(O)c1 [Oleuropein] |  | 217.92 |
| O=C(Nc1ccc(O)cc1)c1ccccc1O [Osalmid] | 151.37 | 150.88 |
| CC1(C)CCC[C@](C)([C@H]2CC[C@]3(C)[C@@H]2[C@H](O)C[C@@H]2[C@@]4(C)CC[C@H](O)C(C)(C)[C@@H]4CC[C@]23C)O1 [Panaxadiol] | 218.82 |  |
